One may read the Dmax as the greatest extent of degradation seen. Broadly, the DC50 is the concentration at which degradation of the target reaches its halfway point.

The source of these data is patent US20260125397A1, “MK2 DEGRADERS AND USES THEREOF” (Kymera Therapeutics, Inc., priority 2023, published 2026).

Bounds are passed on as bounds.

Assay [1] has as its target T1, MK2 (Homo sapiens, UniProt P49137). Nature of the assay: MK2 degradation in human SW1353 cells (MSD, 24 h). The format is cell-based. Further details: endogenous in cells; host or cells: SW-1353 (ATCC HTB-94). The conditions noted are these: for Dmax: read-out: MK2 MSD SW 1353 24 h Dmax %; for DC50: read-out: MK2 MSD SW1353 degradation 24 h GMean External Abs DC50. The procedure:
The human chondrocyte cancer cell line SW-1353 (ATCC(HTB-94)) was cultured in 96 well plates (Coming 3894) at a density of 200,000 cells per well in 100 microlitres in complete growth medium of Leibovitz's L-15 Medium (Gibco) pus 10% fetal Bovine Serum (Coming) and Penicillin/Streptomycin (SolarBio) at 37 degrees Celsius. A serial dilution of each compound (usually 3 to 5 fold serial dilutions up to 10 separate concentration points) was added to individual wells from a 10 millimolar stock solution, at a background concentration of 0.10% DMSO and the cells were shaken at 600 rpm for 5 minutes and then were cultured for 24 hours at 37 degrees Celsius. Separately, a custom MSD (MesoScaleDiscovery, L15XA-3) plate for detection of human MK2 was prepared by coating the plate with the commercial AbCam ab247272 reagent in 1× Phosphate Buffered Saline at 40 microlitres per well and incubated at 4 degrees Celsius overnight. The next day, the MSD plate was washed with 150 microlitres of Tween buffered saline, blocked with MSD blocking buffer (3% Blocker A from MSD), and washed again.
The cell plate was centrifuged at 3,200 g for 5 minutes and the supernatant was discarded and 100 microlitres of RIPA lysis buffer (containing proteinase inhibitors, Boston BioProducts BP-115D) was added and the plate was sealed and shaken on ice for 20 minutes. The plate was centrifuged as before and 70 microlitres of sample lysate was added to the MSD plates and they were shaken at room temperature for 1 hour at 600 rpm. The MSD plate was washed 3 times as before and then the primary MK2 detection antibody (Santa Cruz sc-100393) was added at a final concentration of 1 microgram per ml at 25 microlitres per well and shaken at room temperature for 1 hour at 600 rpm.
(§1) After 3 more washes, the secondary detection antibody (SULFO-Tag anti rabbit antibody R32AB-5) was added at a final concentration of 1 microgram per ml at 25 microlitres per well and shaken at room temperature for 1 hour at 600 rpm. After 3 more washes, the 1X MSD (diluted from 5X concentrate with water) reading buffer was added at 150 microlitres per well and read on the MSD instrument Meso Sector S 600.
The inhibition/degradation curves and DC50 values were plotted and calculated using XL Fit (version v5.3.1.3) using equation 201 and a 4 parameter logistic model whereby fit=(A+((B−A)/(1+((x/C)D))) where A is the Bottom and B is the Top and C is the IC50 and D is the slope and high C is the signal for the DMSO treated cells and Low C is the signal is the signal for the lysis buffer.

The target of assay [2] is T1, MK2. The assay can be described thus: MK2 degradation in human THP-1 monocytic cells (MSD, 24 h). The format is cell-based. Further details: endogenous in cells. The conditions noted are these: THP-1 cells; for DC50: read-out: MK2 MSD THP-1 degradation 24 h GMean External Abs DC50. The procedure:
The human monocytic cancer cell line THP-1 (ATCC (TIB-202)) was cultured in 96 well plates (Coming 3894) at a density of 200,000 cells per well in 100 microlitres in complete growth medium of RPMI 1640 (Gibco) pus 10% fetal Bovine Serum (Coming) and Penicillin/Streptomycin (SolarBio) at 37 degrees Celsius and 5% CO2. A serial dilution of each compound (usually 3 to 5 fold serial dilutions up to 10 separate concentration points) was added to individual wells from a 10 millimolar stock solution, at a background concentration of 0.1% DMSO and the cells were shaken at 600 rpm for 5 minutes and then were cultured for 24 hours at 37 degrees Celsius and 5% carbon dioxide. Separately, a custom MSD (MesoScaleDiscovery, L15XA-3) plate for detection of human MK2 was prepared by coating the plate with the commercial AbCarn ab247272 reagent in 1× Phosphate Buffered Saline at 40 microlitres per well and incubated at 4 degrees Celsius overnight. The next day, the MSD plate was washed with 150 microlitres of Tween buffered saline, blocked with MSD blocking buffer (3% BlockerA from MSD), and washed again.
The cell plate was centrifuged at 3,200 g for 5 minutes and the supernatant was discarded and 100 microlitres of RIPA lysis buffer (containing proteinase inhibitors, Boston BioProducts BP-115D) was added and the plate was sealed and shaken on ice for 20 minutes. The plate was centrifuged as before and 70 microlitres of sample lysate was added to the MSD plates and they were shaken at room temperature for I hour at 600 rpm. The MSD plate was washed 3 times as before and then the primary MK2 detection antibody (Santa Cruz sc-100393) was added at a final concentration of 1 microgram per ml at 25 microlitres per well and shaken at room temperature for 1 hour at 600 rpm.
as §1
The inhibition/degradation curves and DC50 values were plotted and calculated using XL Fit (version v5.3.1.3) using equation 201 and a 4 parameter logistic model whereby fit=(A+((B−A)/(1+((x/C)D))) where A is the Bottom and B is the Top and C is the IC50and D is the slope and high C is the signal for the DMSO treated cells and Low C is the signal is the signal for the lysis buffer.

T1 sequence (P49137 whole entry): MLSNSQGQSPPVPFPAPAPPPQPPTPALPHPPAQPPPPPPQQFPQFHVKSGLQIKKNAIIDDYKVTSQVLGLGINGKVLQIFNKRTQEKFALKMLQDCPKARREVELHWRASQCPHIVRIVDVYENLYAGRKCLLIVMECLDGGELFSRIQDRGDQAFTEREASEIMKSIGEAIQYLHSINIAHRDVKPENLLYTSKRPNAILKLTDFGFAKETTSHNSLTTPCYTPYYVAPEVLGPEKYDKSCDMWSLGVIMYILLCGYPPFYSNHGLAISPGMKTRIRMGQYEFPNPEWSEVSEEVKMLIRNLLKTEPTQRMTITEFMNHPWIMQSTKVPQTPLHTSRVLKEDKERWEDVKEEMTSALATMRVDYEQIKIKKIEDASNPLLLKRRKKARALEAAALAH

As for `Cn1c(=O)n(C2CCC(=O)NC2=O)c2ccc(C#CCN3CCN(c4ccc(-c5nccc(-c6cc7c([nH]6)C6(CC6)CNC7=O)n5)cc4)CC3)cc21` (stereo not shown) [I-41], on MK2 [1], the Dmax fell in the range of 50 to 75% and the DC50 is under 1 nM. Further, at MK2 [2], the Dmax was over 75% and the DC50 is under 1 nM.

With `COc1ccc2c(c1CCN1CCN(c3ccc(-c4nccc(-c5cc6c([nH]5)C5(CC5)CNC6=O)n4)cc3)CC1)n(C)c(=O)n2C1CCC(=O)NC1=O` (stereo not shown) [I-42], on MK2 [1], the Dmax was over 75% and the DC50 is under 1 nM. Also, at MK2 [2], the maximal degradation (Dmax) is over 75% and the DC50 was under 1 nM.

Turning to `C[C@@H]1CNc2c(sc3ccc4nc(N5CCC(CN6CCC(N7CC(c8ccc9c(c8)n(C)c(=O)n9C8CCC(=O)NC8=O)C7)CC6)CC5)ccc4c23)C(=O)N1` (stereo partly shown) [I-43], at MK2 [1], the Dmax was over 75% and the DC50 is under 1 nM. Also, at MK2 [2], the Dmax is over 75% and the DC50 was under 1 nM.

Turning to `Cn1c(=O)n(C2CCC(=O)NC2=O)c2ccc(N3CC(CN4CCC(n5cc(-c6nccc(-c7cc8c([nH]7)C7(CC7)CNC8=O)n6)cn5)CC4)C3)cc21` (stereo not shown) [I-44], on MK2 [1], the Dmax was over 50% and the DC50 is over 100 nM. Moreover, on MK2 [2], the Dmax was over 50% and the DC50 was over 100 nM.

As for `Cn1c(=O)n(C2CCC(=O)NC2=O)c2ccc(N3CC(CN4CCN(c5ccc(-c6nccc(-c7cc8c([nH]7)C7(CC7)CNC8=O)n6)cc5)CC4)C3)cc21` (stereo not shown) [I-45], at MK2 [1], the Dmax was over 50% and the DC50 is over 100 nM. On MK2 [2], the Dmax was over 50% and the DC50 is over 100 nM.

Consider `C[C@@H]1CNc2c(sc3ccc4nc(N5CCC(N(CC(F)F)C6CC7(CCN(c8ccc9c(c8)n(C)c(=O)n9C8CCC(=O)NC8=O)CC7)C6)CC5)ccc4c23)C(=O)N1` (stereo partly shown) [I-46], for which, at MK2 [1], the Dmax was over 75% and the DC50 is under 1 nM. At MK2 [2], the Dmax is over 75% and the DC50 is under 1 nM.

On to `Cn1c(=O)n(C2CCC(=O)NC2=O)c2ccc(N3CC(CN4CCN(c5ccc(-c6nccc(-c7cc8c([nH]7)C7(CC7)CNC8=O)n6)cc5OC5CC5)CC4)C3)cc21` (stereo not shown) [I-47], for which, on MK2 [1], the Dmax was over 50% and the half-maximal degradation concentration (DC50) is over 100 nM. For the same molecule, at MK2 [2], the Dmax is over 50% and the DC50 is under 1 nM.

Take `Cn1c(=O)n(C2CCC(=O)NC2=O)c2ccc(N3CC(CN4CCN(c5ccc(-c6nccc(-c7cc8c([nH]7)C7(CC7)CNC8=O)n6)cc5C(F)(F)F)CC4)C3)cc21` (stereo not shown) [I-48]: on MK2 [1], the Dmax is 50 to 75% and the DC50 is under 1 nM. On MK2 [2], the Dmax is over 75% and the half-maximal degradation concentration (DC50) was under 1 nM.

Regarding `Cn1c(=O)n(C2CCC(=O)NC2=O)c2ccc(N3CC(CN4CCN(c5ccc(-c6nccc(-c7cc8c([nH]7)C7(CC7)CNC8=O)n6)cc5C5CC5)CC4)C3)cc21` (stereo not shown) [I-49], at MK2 [1], the Dmax is over 50% and the DC50 was in the range of 10 to 100 nM. Besides, on MK2 [2], the Dmax fell in the range of 50 to 75% and the DC50 was under 1 nM.

With `C[C@@H]1CNc2c(sc3ccc4nc(N5CCN(CC6CC7(CCN(c8ccc9c(N%10CCC(=O)NC%10=O)cncc9c8)CC7)C6)CC5)ccc4c23)C(=O)N1` [I-50], the Dmax at MK2 [1] and on MK2 [2] was over 75% in each case. The DC50 on MK2 [1] and at MK2 [2] was under 1 nM in each case.

Turning to `Cn1c(=O)n(C2CCC(=O)NC2=O)c2ccc(N3CCN(CC#Cc4ccc(-c5nccc(-c6cc7c([nH]6)C6(CC6)CNC7=O)n5)cc4)CC3)cc21` (stereo not shown) [I-51], the maximal degradation (Dmax) on MK2 [1] is over 50%; on MK2 [2], over 75%. Moreover, the 50% degradation concentration (DC50) was 1 to 10 nM at MK2 [1] and under 1 nM on MK2 [2].

In the case of `C[C@@H]1CNc2c(sc3ccc4nc(N5CCC(CN6CCC7(CC6)CN(c6ccc8c(c6)n(C)c(=O)n8C6CCC(=O)N(C)C6=O)C7)CC5)ccc4c23)C(=O)N1` (stereo partly shown) [I-52], at MK2 [1], the Dmax was over 75% and the DC50 was in the range of 1 to 10 nM. Moreover, at MK2 [2], the Dmax is over 75% and the DC50 is over 100 nM.

Regarding `COc1cc(-c2nccc(-c3cc4c([nH]3)C3(CC3)CNC4=O)n2)ccc1N1CCN(CC2CN(c3ccc4c(c3)n(C)c(=O)n4C3CCC(=O)NC3=O)C2)CC1` (stereo not shown) [I-54], at MK2 [1], the maximal degradation (Dmax) was over 50% and the DC50 was under 1 nM. Moreover, on MK2 [2], the Dmax is 50 to 75% and the DC50 was under 1 nM.
